Laboratory results as given in article PMC6003702 (Biopolymers, 2017).
Where two headings read alike, the source gives them in different places. Where a SMILES comes first, the peptide text is derived from it.

How the values were obtained:
cloned rat KOR = cloned rat KOR (Rattus norvegicus, UniProt P34975); experiment: Radioligand binding assay, KOR; conditions: SEM
cloned rat MOR = cloned rat MOR (Rattus norvegicus, UniProt P33535); experiment: Radioligand binding assay, MOR; conditions: SEM
mouse DOR = mouse DOR (Mus musculus, UniProt P32300); experiment: Radioligand binding assay, DOR
cloned KOR = cloned KOR (Rattus norvegicus, UniProt P34975); experiment: [35S]GTPγS assay at KOR; assay type: biochemical; conditions: SEM
cloned KOR, sequence (P34975 whole entry): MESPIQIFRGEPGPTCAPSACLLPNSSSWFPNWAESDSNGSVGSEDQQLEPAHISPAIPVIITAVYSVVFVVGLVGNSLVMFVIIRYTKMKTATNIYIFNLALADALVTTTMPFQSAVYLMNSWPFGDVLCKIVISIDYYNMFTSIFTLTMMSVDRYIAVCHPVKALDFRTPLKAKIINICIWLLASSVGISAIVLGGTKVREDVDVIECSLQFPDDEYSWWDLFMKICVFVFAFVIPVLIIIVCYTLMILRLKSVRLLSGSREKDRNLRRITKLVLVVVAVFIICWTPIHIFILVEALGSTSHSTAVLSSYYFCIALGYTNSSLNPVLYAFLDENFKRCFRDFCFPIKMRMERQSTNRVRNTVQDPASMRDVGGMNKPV

cloned rat KOR, sequence (P34975 whole entry): as above
cloned rat MOR, sequence (P33535 whole entry): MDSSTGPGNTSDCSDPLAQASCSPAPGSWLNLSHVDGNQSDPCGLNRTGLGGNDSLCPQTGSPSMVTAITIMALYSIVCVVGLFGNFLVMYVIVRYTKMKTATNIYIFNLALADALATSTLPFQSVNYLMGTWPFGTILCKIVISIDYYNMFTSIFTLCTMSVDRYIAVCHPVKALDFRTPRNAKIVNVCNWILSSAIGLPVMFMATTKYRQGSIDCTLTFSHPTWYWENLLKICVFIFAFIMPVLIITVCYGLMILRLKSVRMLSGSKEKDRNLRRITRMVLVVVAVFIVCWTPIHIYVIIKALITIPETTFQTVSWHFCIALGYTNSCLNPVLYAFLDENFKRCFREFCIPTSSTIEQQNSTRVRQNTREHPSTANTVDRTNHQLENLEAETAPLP
mouse DOR, sequence (P32300 whole entry): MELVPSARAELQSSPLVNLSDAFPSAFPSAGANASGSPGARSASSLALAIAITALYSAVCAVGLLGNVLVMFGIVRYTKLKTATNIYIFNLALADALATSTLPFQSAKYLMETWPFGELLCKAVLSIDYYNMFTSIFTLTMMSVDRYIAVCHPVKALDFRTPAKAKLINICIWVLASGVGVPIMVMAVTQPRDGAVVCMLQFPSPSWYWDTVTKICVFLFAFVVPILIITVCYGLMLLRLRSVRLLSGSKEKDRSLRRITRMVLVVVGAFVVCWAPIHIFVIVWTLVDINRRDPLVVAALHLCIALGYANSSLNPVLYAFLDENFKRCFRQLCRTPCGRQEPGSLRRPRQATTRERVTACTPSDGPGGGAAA

Structure (SMILES) | Ki (cloned rat KOR) | Ki (cloned rat MOR) | Ki (mouse DOR; SEM) | EC50 (cloned KOR) | Ki (mouse DOR)
CC(C)C[C@H](NC(=O)[C@H](Cc1ccccc1)NC(=O)CNC(=O)CNC(=O)[C@@H](N)Cc1ccc(O)cc1)C(=O)N[C@@H](CCCNC(=N)N)C(=O)N[C@@H](CCCNC(=N)N)C(=O)N[C@@H](CCC(N)=O)C(=O)N[C@@H](C)C(=O)N[C@@H](CCCCN)C(=O)N[C@H](C(=O)N[C@H](C(=O)N[C@H](C(N)=O)[C@@H](C)O)C(C)C)C(C)C [Compound 7] (H-YGGFLRRQAKVVT-NH2) | 11.3 ± 1.7 nM | 3.76 ± 0.22 nM | 42.1 ± 2.5 nM | 14.8 ± 2.6 nM | –
CC(C)[C@H](NC(=O)[C@H](CCCCN)NC(=O)[C@H](Cc1ccccc1)NC(=O)[C@H](CCC(N)=O)NC(=O)[C@H](CCCNC(=N)N)NC(=O)[C@H](CCCNC(=N)N)NC(=O)[C@H](C)NC(=O)[C@H](Cc1ccccc1)NC(=O)CNC(=O)CNC(=O)[C@@H](N)Cc1ccc(O)cc1)C(=O)N[C@H](C(=O)N[C@H](C(N)=O)[C@@H](C)O)C(C)C [Compound 3] (H-YGGFARRQFKVVT-NH2) | 12.1 ± 5.2 nM | 20.3 ± 3.1 nM | 265 ± 43 nM | 109 ± 34 nM | –
CC(C)C[C@H](NC(=O)[C@H](C)NC(=O)CNC(=O)CNC(=O)[C@@H](N)Cc1ccc(O)cc1)C(=O)N[C@@H](CCCNC(=N)N)C(=O)N[C@@H](CCCNC(=N)N)C(=O)N[C@@H](CCC(N)=O)C(=O)N[C@@H](Cc1ccccc1)C(=O)N[C@@H](CCCCN)C(=O)N[C@H](C(=O)N[C@H](C(=O)N[C@H](C(N)=O)[C@@H](C)O)C(C)C)C(C)C [Compound 2] (H-YGGALRRQFKVVT-NH2) | 1510 ± 221 nM | 1040 ± 100 nM | – | 1180 ± 330 nM | > 10000 nM
CC(C)C[C@H](NC(=O)[C@H](Cc1ccccc1)NC(=O)CNC(=O)CNC(=O)[C@H](C)N)C(=O)N[C@@H](CCCNC(=N)N)C(=O)N[C@@H](CCCNC(=N)N)C(=O)N[C@@H](CCC(N)=O)C(=O)N[C@@H](Cc1ccccc1)C(=O)N[C@@H](CCCCN)C(=O)N[C@H](C(=O)N[C@H](C(=O)N[C@H](C(N)=O)[C@@H](C)O)C(C)C)C(C)C [Compound 1] (H-AGGFLRRQFKVVT-NH2) | 886 ± 123 nM | 651 ± 70 nM | – | 2650 ± 890 nM | > 10000 nM
CC(C)C[C@H](NC(=O)[C@H](Cc1ccccc1)NC(=O)CNC(=O)CNC(=O)[C@@H](N)Cc1ccc(O)cc1)C(=O)N[C@@H](CCCNC(=N)N)C(=O)N[C@@H](CCCNC(=N)N)C(=O)N[C@@H](CCC(N)=O)C(=O)N[C@@H](Cc1ccccc1)C(=O)N[C@@H](CCCCN)C(=O)N[C@@H](C)C(=O)N[C@H](C(=O)N[C@H](C(N)=O)[C@@H](C)O)C(C)C [Compound 9] (H-YGGFLRRQFKAVT-NH2) | 12.4 ± 1.6 nM | 7.45 ± 2.69 nM | 58.8 ± 3.4 nM | 8.79 ± 2.2 nM | –
CC(C)C[C@H](NC(=O)[C@H](Cc1ccccc1)NC(=O)CNC(=O)CNC(=O)[C@@H](N)Cc1ccc(O)cc1)C(=O)N[C@@H](CCCNC(=N)N)C(=O)N[C@@H](CCCNC(=N)N)C(=O)N[C@@H](CCC(N)=O)C(=O)N[C@@H](Cc1ccccc1)C(=O)N[C@@H](CCCCN)C(=O)N[C@H](C(=O)N[C@H](C(=O)N[C@H](C(N)=O)[C@@H](C)O)C(C)C)C(C)C [Dyn B amide, reference compound] | 6.3 ± 1.68 nM | 8.05 ± 2.87 nM | 43.2 ± 1.6 nM | 9.14 ± 1.96 nM | –
CC(C)C[C@H](NC(=O)[C@H](Cc1ccccc1)NC(=O)CNC(=O)CNC(=O)[C@@H](N)Cc1ccc(O)cc1)C(=O)N[C@@H](CCCNC(=N)N)C(=O)N[C@@H](CCCNC(=N)N)C(=O)N[C@@H](C)C(=O)N[C@@H](Cc1ccccc1)C(=O)N[C@@H](CCCCN)C(=O)N[C@H](C(=O)N[C@H](C(=O)N[C@H](C(N)=O)[C@@H](C)O)C(C)C)C(C)C [Compound 6] (H-YGGFLRRAFKVVT-NH2) | 13 ± 0.96 nM | 4.32 ± 0.1 nM | 54 ± 6.9 nM | 20.2 ± 10.8 nM | –
CC(C)C[C@H](NC(=O)[C@H](Cc1ccccc1)NC(=O)CNC(=O)CNC(=O)[C@@H](N)Cc1ccc(O)cc1)C(=O)N[C@@H](CCCNC(=N)N)C(=O)N[C@@H](C)C(=O)N[C@@H](CCC(N)=O)C(=O)N[C@@H](Cc1ccccc1)C(=O)N[C@@H](CCCCN)C(=O)N[C@H](C(=O)N[C@H](C(=O)N[C@H](C(N)=O)[C@@H](C)O)C(C)C)C(C)C [Compound 5] (H-YGGFLRAQFKVVT-NH2) | 82.4 ± 9.3 nM | 16.7 ± 5.1 nM | 67.5 ± 8.3 nM | 802 ± 290 nM | –
CC(C)C[C@H](NC(=O)[C@H](Cc1ccccc1)NC(=O)CNC(=O)CNC(=O)[C@@H](N)Cc1ccc(O)cc1)C(=O)N[C@@H](CCCNC(=N)N)C(=O)N[C@@H](CCCNC(=N)N)C(=O)N[C@@H](CCC(N)=O)C(=O)N[C@@H](Cc1ccccc1)C(=O)N[C@@H](C)C(=O)N[C@H](C(=O)N[C@H](C(=O)N[C@H](C(N)=O)[C@@H](C)O)C(C)C)C(C)C [Compound 8] (H-YGGFLRRQFAVVT-NH2) | 31.6 ± 6 nM | 40.5 ± 3.9 nM | 119 ± 16 nM | 6.36 ± 1.7 nM | –
CC(C)C[C@H](NC(=O)[C@H](Cc1ccccc1)NC(=O)CNC(=O)CNC(=O)[C@@H](N)Cc1ccc(O)cc1)C(=O)N[C@@H](C)C(=O)N[C@@H](CCCNC(=N)N)C(=O)N[C@@H](CCC(N)=O)C(=O)N[C@@H](Cc1ccccc1)C(=O)N[C@@H](CCCCN)C(=O)N[C@H](C(=O)N[C@H](C(=O)N[C@H](C(N)=O)[C@@H](C)O)C(C)C)C(C)C [Compound 4] (H-YGGFLARQFKVVT-NH2) | 43.1 ± 2.8 nM | 14.1 ± 3 nM | 25.7 ± 1.6 nM | 116 ± 21 nM | –
